The results in this text go back to patent US20250230173A1, “SALT FORMS OF AN AXL INHIBITOR” (Arcus Biosciences, Inc., priority 2023, published 2025).

Holding throughout (assay type): physicochemical
A short description of series [1]: Competitive slurry of 2-Napsylate Form I and Form VI at different water activities. As to the method: To determine the impact of water activity on 2-Napsylate Form VI and 2-Napsylate Form I, a series of competitive slurry experiments were carried out at different water activities in THF/water and ACN/water solvent systems at RT and 55° C. Suspensions of 2-Napsylate Form I at each condition were made and allowed to equilibrate for 2 h followed by addition of ˜5 mg of Form VI with stirring.

The nature of series [2]: Stability study of selected solid forms, HPLC purity after 7 days of storage.
Series [3] can be described thus: Stability of freebase Compound (I) in amorphous form, HPLC purity on storage. As for the experimental part:
(§1) HPLC analysis was performed with an Agilent HPLC 1260 series instrument.
The stability of the freebase amorphous form of Compound (I), for example, as prepared in Example 1, was assessed by High Performance Liquid Chromatography (HPLC). […] Freebase Compound (I) in amorphous form was added to 5 separate vials. Each vial was sealed and stored for a period of 5 days at 20° C., 40° C., 60° C., 80° C., and 100° C., respectively. Purity was assessed by HPLC initially, and after 1, 3, and 5 days of storage.

The nature of series [4]: Stability study of selected solid forms, XRPD after 7 days of storage. An excerpt:
XRPD diffractograms were collected with a Bruker, D2 Phaser or Panalytical Empyrean X-ray diffractometer. Diffractograms can be read by one of skill in the art, for example, to determine if a chemical sample is the substantially the same, different, or represents a mixture of forms. When a diffractogram is “substantially in accordance” as another diffractogram, a person of skill in the art would regard the samples resulting in the two diffractograms as the same form or same mixture of forms, taking into account minor variations for instrumentation, conditions, and the like.
A stability study comparing amorphous freebase Compound I, Freebase Form II, 2-Napsylate Form I, Fumarate Form I, Succinate Form I, and Camsylate Form I was conducted. HPLC measurements were taken after 7 days of storage at the indicated conditions.

Series [5] in a line: Stability of amorphous salt forms of Compound (I), HPLC purity loss on storage. The following applies: for HPLC Purity Loss on Day 14 (%): 14 days at 40° C., 75% RH; for HPLC Purity Loss (%): stored at RT for 10 days under ambient humidity (~75% RH), purity on day 3 minus purity on day 10. As to the method:
as §1
The stability of various amorphous salt forms of Compound (I) was also assessed. The salt forms, in general, were prepared by suspending Compound (I) in a suitable solvent at ambient temperature and adding the corresponding acid to the mixture. The mixtures were allowed to stir until a solution was formed, filtered to remove any trace solids, and the resulting filtrate lyophilized to access the salts as solids. Characterization by XRPD established that all salt forms were amorphous. […]

Series [6] in a line: Form conversion of 2-Napsylate crystalline forms on vacuum drying or in slurry (XRPD). The conditions noted are these: drying at 40° C. under vacuum (overnight).
[7] abbreviates: 7 days, 2° C., listed as Amorphous Freebase.
Setting [8] is: 7 days, 25° C., listed as Amorphous Freebase.
The mark [9] stands for this setting: 7 days, 40° C. / 75% RH, listed as Amorphous Freebase.
Where [10] appears, read: T0, listed as Amorphous Freebase.

Marks after values point to notes of the source that are not given here.

With `Cc1cccnc1-c1ccc(-c2n[nH]c3ncc(-c4ccc5c(c4)CC[C@@H](N4C6COCC4C6)CC5)cc23)nc1`, the “2-Napsyalte Crystal Form” value is “Gel Formation” in series [1] (55° C., H2O, 1 w); “Gel Formation” in series [1] (55° C., H2O, 2 d); “Form I (majorly)” in series [1] (55° C., THF, 1 w); “Form VI (majorly)” in series [1] (55° C., THF, 2 d); “Form I” in series [1] (55° C., THF/H2O (aw = 0.2), 1 w); “Form I (majorly)” in series [1] (55° C., THF/H2O (aw = 0.2), 2 d). In addition, the “2-Napsyalte Crystal Form” value in series [1] (55° C., THF/H2O (aw = 0.4), 1 w) is given as “Gel Formation”; in series [1] (55° C., THF/H2O (aw = 0.4), 2 d), “Gel Formation”; in series [1] (55° C., THF/H2O (aw = 0.6), 1 w) it was “Gel Formation”; in series [1] (55° C., THF/H2O (aw = 0.6), 2 d), “Gel Formation”; in series [1] (55° C., THF/H2O (aw = 0.8), 1 w), “Gel Formation”; in series [1] (55° C., THF/H2O (aw = 0.8), 2 d), “Gel Formation”. In addition, the “2-Napsyalte Crystal Form” value in series [1] (RT, H2O, 1 w) is “Form IX”; in series [1] (RT, H2O, 2 d) it was “Form I”; in series [1] (RT, THF, 1 w), “Form I (majorly)”; in series [1] (RT, THF, 2 d), “Form VI (majorly)”; in series [1] (RT, THF/H2O (aw = 0.2), 1 w), “Form I (majorly)”; in series [1] (RT, THF/H2O (aw = 0.2), 2 d), “Form I (majorly)”. The “2-Napsyalte Crystal Form” value is “Gel Formation” in series [1] (RT, THF/H2O (aw = 0.4), 1 w); “Gel Formation” in series [1] (RT, THF/H2O (aw = 0.4), 2 d); “Gel Formation” in series [1] (RT, THF/H2O (aw = 0.6), 1 w); “Gel Formation” in series [1] (RT, THF/H2O (aw = 0.6), 2 d); “Gel Formation” in series [1] (RT, THF/H2O (aw = 0.8), 1 w); “Gel Formation” in series [1] (RT, THF/H2O (aw = 0.8), 2 d). In addition, the “2-Napsylate Crystal Form” value in series [1] (RT, ACN, 1 d) is “Form I”; in series [1] (RT, ACN/H2O (aw = 0.2), 1 d), “Form I”; in series [1] (RT, ACN/H2O (aw = 0.4), 1 d), “Form I”; in series [1] (RT, ACN/H2O (aw = 0.6), 1 d), “Form I”; in series [1] (RT, ACN/H2O (aw = 0.8), 1 d) it was “Gel Formation”; in series [1] (RT, H2O, 1 d (ACN series)), “Form I”.
`Cc1cccnc1-c1ccc(-c2n[nH]c3ncc(-c4ccc5c(c4)CC[C@@H](N4C6COCC4C6)CC5)cc23)nc1` [Amorphous Compound (I) (freebase)]: the “HPLC Purity (A %)” value in series [2] (setting [7]) amounted to 97.68 A %; in series [2] (setting [8]), 97.58 A %; in series [2] (setting [9]) it was 96.88 A %; in series [2] (setting [10]), 97.42 A %. In addition, the HPLC purity in series [3] (40° C., Day 0) is 96.45 % purity; in series [3] (40° C., Day 1), 96.12% purity; in series [3] (40° C., Day 3), 95.87% purity; in series [3] (40° C., Day 5) it was 95.00% purity; in series [3] (60° C., Day 0), 96.45 % purity; in series [3] (60° C., Day 1), 95.92% purity. For the same compound, the HPLC purity turned out to be 93.06% purity in series [3] (60° C., Day 3); 92.39% purity in series [3] (60° C., Day 5); 96.45 % purity in series [3] (80° C., Day 0); 95.01% purity in series [3] (80° C., Day 1); 91.87% purity in series [3] (80° C., Day 3); 89.86% purity in series [3] (80° C., Day 5). In addition, the HPLC purity came out at 96.45 % purity in series [3] (100° C., Day 0); 90.13% purity in series [3] (100° C., Day 1); 74.66% purity in series [3] (100° C., Day 3); 68.00% purity in series [3] (100° C., Day 5); 96.45 % purity in series [3] (r.t., Day 0); 96.23% purity in series [3] (r.t., Day 1). Further, the HPLC purity in series [3] (r.t., Day 3) is 96.01% purity; in series [3] (r.t., Day 5) it was 96.03% purity. Moreover, the “Decomposition on storage (HPLC)” value in series [3] (sealed vials, 5 days at 20° C., 40° C., 60° C., 80° C., 100° C.) is given as “underwent decomposition”. Further, the “XRPD (solid form)” value in series [4] (setting [7]), in series [4] (setting [8]), in series [4] (setting [9]) and in series [4] (setting [10]) was “Amorphous” throughout.
Turning to `Cc1cccnc1-c1ccc(-c2n[nH]c3ncc(-c4ccc5c(c4)CC[C@@H](N4C6COCC4C6)CC5)cc23)nc1` [Benzene Sulfonic], the “HPLC Purity Loss on Day 14 (%)” value in series [5] turned out to be 3.4%.
On to `Cc1cccnc1-c1ccc(-c2n[nH]c3ncc(-c4ccc5c(c4)CC[C@@H](N4C6COCC4C6)CC5)cc23)nc1` [Benzoate], for which the “HPLC Purity Loss (%)” value in series [5] was 3.0* %.
Regarding `Cc1cccnc1-c1ccc(-c2n[nH]c3ncc(-c4ccc5c(c4)CC[C@@H](N4C6COCC4C6)CC5)cc23)nc1` [Camsylate Form I], the “HPLC Purity (A %)” value in series [2] (7 days, 2° C.) is 99.69 A %; in series [2] (7 days, 25° C.), 99.68 A %; in series [2] (7 days, 40° C. / 75% RH) it was 99.29 A %; in series [2] (T0), 99.69 A %. Further, the “XRPD (solid form)” value is “Form I” in series [4] (7 days, 2° C.); “Form I” in series [4] (7 days, 25° C.); “Decreased” in series [4] (7 days, 40° C. / 75% RH); “Form I” in series [4] (T0).
Take `Cc1cccnc1-c1ccc(-c2n[nH]c3ncc(-c4ccc5c(c4)CC[C@@H](N4C6COCC4C6)CC5)cc23)nc1` [Chloride]: in series [5], the “HPLC Purity Loss on Day 14 (%)” value is listed as 1.5% and the “HPLC Purity Loss (%)” value was 6.6* %.
Consider `Cc1cccnc1-c1ccc(-c2n[nH]c3ncc(-c4ccc5c(c4)CC[C@@H](N4C6COCC4C6)CC5)cc23)nc1` [Citrate], for which the “HPLC Purity Loss on Day 14 (%)” value in series [5] stood at 14.2%.
Regarding `Cc1cccnc1-c1ccc(-c2n[nH]c3ncc(-c4ccc5c(c4)CC[C@@H](N4C6COCC4C6)CC5)cc23)nc1` [Form V], the “Crystal form after drying” value in series [6] is on record as “Form VII after”.
With `Cc1cccnc1-c1ccc(-c2n[nH]c3ncc(-c4ccc5c(c4)CC[C@@H](N4C6COCC4C6)CC5)cc23)nc1` [Freebase Form II], the “HPLC Purity (A %)” value in series [2] (7 days, 25° C.) was found to be 99.44 A %; in series [2] (7 days, 40° C. / 75% RH), 99.36 A %; in series [2] (7 days, 60° C.), 99.22 A %; in series [2] (T0), 100.0 A %. In addition, in series [2] (Example 6 stability study), the “Chemical and physical stability compared to the other forms tested” value is “better chemical and physical stability”. Besides, the “XRPD (solid form)” value in series [4] (7 days, 25° C.) is listed as “Form II”; in series [4] (7 days, 40° C. / 75% RH), “Form II”; in series [4] (7 days, 60° C.) it was “Form I”; in series [4] (T0), “Form II”.
As to `Cc1cccnc1-c1ccc(-c2n[nH]c3ncc(-c4ccc5c(c4)CC[C@@H](N4C6COCC4C6)CC5)cc23)nc1` [Fumarate Form I], the “HPLC Purity (A %)” value is 98.01 A % in series [2] (7 days, 2° C.); 97.94 A % in series [2] (7 days, 25° C.); 95.29 A % in series [2] (7 days, 40° C. / 75% RH); 97.84 A % in series [2] (T0). Further, the “XRPD (solid form)” value in series [4] (7 days, 2° C.) is listed as “Form I”; in series [4] (7 days, 25° C.), “Form I”; in series [4] (7 days, 40° C. / 75% RH), “Form I”; in series [4] (T0), “Form I”.
On to `Cc1cccnc1-c1ccc(-c2n[nH]c3ncc(-c4ccc5c(c4)CC[C@@H](N4C6COCC4C6)CC5)cc23)nc1` [Succinate Form I], for which the “HPLC Purity (A %)” value worked out at 97.74 A % in series [2] (7 days, 2° C.); 98.22 A % in series [2] (7 days, 25° C.); 89.76 A % in series [2] (7 days, 40° C. / 75% RH); 98.09 A % in series [2] (T0). Moreover, the “XRPD (solid form)” value was “Form I” in series [4] (7 days, 2° C.); “Form I” in series [4] (7 days, 25° C.); “Form I” in series [4] (7 days, 40° C. / 75% RH); “Form I” in series [4] (T0).
